Structures are written as SMILES. Numbered stars: 1 amine (or outer) side, 2 acyl side, 3 side chain; on linkers, the order of the positions; unused ones are H or OH. Bridge positions count the residues as written; N and C are the ends. Square brackets hold non-standard residues; d marks the D form. Side chains are listed from the residue outwards. Peptide text beside a SMILES is read from it. * marks the point of attachment. Trp(1-Me,7-Cl) = Cn1cc(C[C@H](N)C(=O)O)c2cccc(Cl)c21; dPhe(3-CONH2) = NC(=O)c1cccc(C[C@@H](N)C(=O)O)c1; NMePhe(4-Cl) = CN[C@@H](Cc1ccc(Cl)cc1)C(=O)O; Piperazinyl(4-CH2COOH) = O=C(O)CN1CCN(*)CC1; Trp(1-Me) = Cn1cc(C[C@H](N)C(=O)O)c2ccccc21; NMe3Pal = CN[C@@H](Cc1cccnc1)C(=O)O; NMeF = CN[C@@H](Cc1ccccc1)C(=O)O; Gly(cBu) = N[C@H](C(=O)O)C1CCC1; NMeE = CN[C@@H](CCC(=O)O)C(=O)O; Aad = N[C@@H](CCCC(=O)O)C(=O)O; NMeN = CN[C@@H](CC(N)=O)C(=O)O; dAhp(2) = CCCCC[C@@H](N)C(=O)O; Chg = N[C@H](C(=O)O)C1CCCCC1; CO = O=C([*:1])[*:2]

Here are results for twelve compounds from patent publication US20260098061A1, “EPHA2-BINDING PENDING PEPTIDE AND COMPOSITION COMPRISING SAME” (PeptiDream Inc., priority 2022, published 2026).

For the assay, the target named is T1, Recombinant Human EphA2 Fc Protein (Homo sapiens, UniProt P29317).
T1 construct: purchased Elabscience
Kind of assay: SPR interaction analysis (Biacore T200), kinetics of peptides against EphA2. Type of assay: binding. Particulars: Recombinant Human EphA2 Fc Protein captured by Human Antibody Capture kit; single-cycle kinetics; 25° C.; HBS-P+ buffer with 1% DMSO. The method in brief: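 On a Biacore T200 at 25° C, Fc-tagged human EphA2 was captured via anti-human antibody; peptides ran as five serial dilutions in HBS-P+ pH 7.4 with 1% DMSO by single-cycle kinetics. Baseline-subtracted data fitted for ka and kd, from which KD was derived.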

What is called Kd is the concentration at which binding is half-saturated. With `CC(C)C[C@@H]1NC(=O)[C@H](CC(N)=O)NC(=O)[C@H](Cc2cccnc2)N(C)C(=O)[C@@H](C)NC(=O)CSC[C@@H](C(N)=O)NC(=O)[C@H](CC(=O)N(C)C)NC(=O)[C@H]([C@@H](C)O)NC(=O)[C@H](Cc2cn(C)c3ccccc23)NC(=O)[C@H](CCCCNC(=O)N2CCN(CC(=O)O)CC2)NC(=O)[C@H](Cc2cn(C)c3ccccc23)NC(=O)[C@H](CCC(=O)O)N(C)C(=O)[C@H](CCCC(N)=O)NC1=O` [PDC_EphA2-00018534, da-Me3Py-N-L-Hgn-MeE-W1Me-KCOpipzaa-W1Me-T-Ndm-C-NH2] ({CH2CO}-[dA][NMe3Pal]NL[Aad](NH2)[NMeE][Trp(1-Me)]K([CO-Piperazinyl(4-CH2COOH)])[Trp(1-Me)]TD(NMe2)C-NH2; thioether N-12), the Kd was below 1 nM.

As for `CCCCC[C@H]1NC(=O)CSC[C@@H](C(N)=O)NC(=O)[C@H](CCCC(N)=O)NC(=O)[C@H]([C@@H](C)O)NC(=O)[C@H](Cc2cn(C)c3ccccc23)NC(=O)[C@H](CCCCNC(=O)N2CCN(CC(=O)O)CC2)NC(=O)[C@H](Cc2cn(C)c3ccccc23)NC(=O)[C@H](Cc2ccccc2)N(C)C(=O)[C@H](CCCC(N)=O)NC(=O)[C@H](C2CCCCC2)NC(=O)[C@H](CC(N)=O)NC(=O)[C@H](Cc2cccnc2)N(C)C1=O` [PDC_EphA2-00018535, dahp-Me3Py-N-Chg-Hgn-MeF-W1Me-KCOpipzaa-W1Me-T-Hgn-C-NH2] ({CH2CO}-[dAhp(2)][NMe3Pal]N[Chg][Aad](NH2)[NMeF][Trp(1-Me)]K([CO-Piperazinyl(4-CH2COOH)])[Trp(1-Me)]T[Aad](NH2)C-NH2; thioether N-12), the Kd was below 1 nM. The same measure for `CNC(=O)C[C@@H]1NC(=O)[C@H](C2CCCCC2)NC(=O)[C@H](CC(N)=O)NC(=O)[C@H](Cc2cccnc2)N(C)C(=O)[C@@H](C)NC(=O)CSC[C@@H](C(N)=O)NC(=O)[C@H](CCCC(N)=O)NC(=O)[C@H]([C@@H](C)O)NC(=O)[C@H](Cc2cn(C)c3ccccc23)NC(=O)[C@H](CCCCNC(=O)N2CCN(CC(=O)O)CC2)NC(=O)[C@H](Cc2cn(C)c3ccccc23)NC(=O)[C@H](Cc2ccccc2)N(C)C1=O` [PDC_EphA2-00018536, da-Me3Py-N-Chg-Nmm-MeF-W1Me-KCOpipzaa-W1Me-T-Hgn-C-NH2] ({CH2CO}-[dA][NMe3Pal]N[Chg]D(NHMe)[NMeF][Trp(1-Me)]K([CO-Piperazinyl(4-CH2COOH)])[Trp(1-Me)]T[Aad](NH2)C-NH2; thioether N-12): below 1 nM. As for `C[C@H]1NC(=O)CSC[C@@H](C(N)=O)NC(=O)[C@H](CCCC(N)=O)NC(=O)[C@H]([C@@H](C)O)NC(=O)[C@H](Cc2cn(C)c3ccccc23)NC(=O)[C@H](CCCCNC(=O)N2CCN(CC(=O)O)CC2)NC(=O)[C@H](Cc2cn(C)c3ccccc23)NC(=O)[C@H](Cc2ccccc2)N(C)C(=O)[C@H](CC(=O)N(C)C)NC(=O)[C@H](C2CCCCC2)NC(=O)[C@H](CC(N)=O)NC(=O)[C@H](Cc2cccnc2)N(C)C1=O` [PDC_EphA2-00018537, da-Me3Py-N-Chg-Ndm-MeF-W1Me-KCOpipzaa-W1Me-T-Hgn-C-NH2] ({CH2CO}-[dA][NMe3Pal]N[Chg]D(NMe2)[NMeF][Trp(1-Me)]K([CO-Piperazinyl(4-CH2COOH)])[Trp(1-Me)]T[Aad](NH2)C-NH2; thioether N-12), the equilibrium dissociation constant (Kd) is below 1 nM.

Turning to `C[C@H]1NC(=O)CSC[C@@H](C(N)=O)NC(=O)[C@H](CCCC(N)=O)NC(=O)[C@H]([C@@H](C)O)NC(=O)[C@H](Cc2cn(C)c3ccccc23)NC(=O)[C@H](CCCCNC(=O)N2CCN(CC(=O)O)CC2)NC(=O)[C@H](Cc2cn(C)c3ccccc23)NC(=O)[C@H](Cc2ccc(Cl)cc2)N(C)C(=O)[C@H](CCCC(N)=O)NC(=O)[C@H](C2CCCCC2)NC(=O)[C@H](CC(N)=O)NC(=O)[C@H](Cc2cccnc2)N(C)C1=O` [PDC_EphA2-00018538, da-Me3Py-N-Chg-Hgn-MeF4C-W1Me-KCOpipzaa-W1Me-T-Hgn-C-NH2] ({CH2CO}-[dA][NMe3Pal]N[Chg][Aad](NH2)[NMePhe(4-Cl)][Trp(1-Me)]K([CO-Piperazinyl(4-CH2COOH)])[Trp(1-Me)]T[Aad](NH2)C-NH2; thioether N-12), the Kd was below 1 nM. On to `CNC(=O)C[C@@H]1NC(=O)[C@H]([C@@H](C)O)NC(=O)[C@H](Cc2cn(C)c3ccccc23)NC(=O)[C@H](CCCCNC(=O)N2CCN(CC(=O)O)CC2)NC(=O)[C@H](Cc2cn(C)c3ccccc23)NC(=O)[C@H](Cc2ccccc2)N(C)C(=O)[C@H](CCCC(N)=O)NC(=O)[C@H](C2CCCCC2)NC(=O)[C@H](CC(N)=O)NC(=O)[C@H](Cc2cccnc2)N(C)C(=O)[C@@H](C)NC(=O)CSC[C@@H](C(N)=O)NC1=O` [PDC_EphA2-00018539, da-Me3Py-N-Chg-Hgn-MeF-W1Me-KCOpipzaa-W1Me-T-Nmm-C-NH2] ({CH2CO}-[dA][NMe3Pal]N[Chg][Aad](NH2)[NMeF][Trp(1-Me)]K([CO-Piperazinyl(4-CH2COOH)])[Trp(1-Me)]TD(NHMe)C-NH2; thioether N-12), for which the Kd was below 1 nM. `C[C@H]1NC(=O)CSC[C@@H](C(N)=O)NC(=O)[C@H](CC(=O)N(C)C)NC(=O)[C@H]([C@@H](C)O)NC(=O)[C@H](Cc2cn(C)c3ccccc23)NC(=O)[C@H](CCCCNC(=O)N2CCN(CC(=O)O)CC2)NC(=O)[C@H](Cc2cn(C)c3ccccc23)NC(=O)[C@H](Cc2ccccc2)N(C)C(=O)[C@H](CCCC(N)=O)NC(=O)[C@H](C2CCCCC2)NC(=O)[C@H](CC(N)=O)NC(=O)[C@H](Cc2cccnc2)N(C)C1=O` [PDC_EphA2-00018540, da-Me3Py-N-Chg-Hgn-MeF-W1Me-KCOpipzaa-W1Me-T-Ndm-C-NH2] ({CH2CO}-[dA][NMe3Pal]N[Chg][Aad](NH2)[NMeF][Trp(1-Me)]K([CO-Piperazinyl(4-CH2COOH)])[Trp(1-Me)]TD(NMe2)C-NH2; thioether N-12): the Kd is below 1 nM. With `CC(C)[C@@H]1NC(=O)[C@H](Cc2cn(C)c3c(Cl)cccc23)NC(=O)[C@H](CC(N)=O)N(C)C(=O)[C@H](CCCC(N)=O)NC(=O)[C@H](C2CCC2)NC(=O)[C@H](CC(N)=O)NC(=O)[C@H](Cc2ccccc2)N(C)C(=O)[C@@H](Cc2cccc(C(N)=O)c2)NC(=O)CSC[C@@H](C(N)=O)NC(=O)[C@H](CCCC(N)=O)NC(=O)[C@H]([C@@H](C)O)NC(=O)[C@H](Cc2cn(C)c3ccccc23)NC1=O` [PDC_EphA2-00019421, df3CON-MeF-N-Cbg-Hgn-MeN-W1Me7Cl-V-W1Me-T-Hgn-C-NH2] ({CH2CO}-[dPhe(3-CONH2)][NMeF]N[Gly(cBu)][Aad](NH2)[NMeN][Trp(1-Me,7-Cl)]V[Trp(1-Me)]T[Aad](NH2)C-NH2; thioether N-12) the figure was below 1 nM; with `CC(C)C[C@@H]1NC(=O)[C@H](CC(N)=O)NC(=O)[C@H](Cc2ccccc2)N(C)C(=O)[C@@H](Cc2cccc(C(N)=O)c2)NC(=O)CSC[C@@H](C(N)=O)NC(=O)[C@H](CCCC(N)=O)NC(=O)[C@H]([C@@H](C)O)NC(=O)[C@H](Cc2cn(C)c3ccccc23)NC(=O)[C@H](C(C)C)NC(=O)[C@H](Cc2cn(C)c3c(Cl)cccc23)NC(=O)[C@H](CC(N)=O)N(C)C(=O)[C@H](CCCC(N)=O)NC1=O` [PDC_EphA2-00019422, df3CON-MeF-N-L-Hgn-MeN-W1Me7Cl-V-W1Me-T-Hgn-C-NH2] ({CH2CO}-[dPhe(3-CONH2)][NMeF]NL[Aad](NH2)[NMeN][Trp(1-Me,7-Cl)]V[Trp(1-Me)]T[Aad](NH2)C-NH2; thioether N-12), below 1 nM. The same measure for `CC(C)C[C@@H]1NC(=O)[C@H](CC(N)=O)NC(=O)[C@H](Cc2ccccc2)N(C)C(=O)[C@@H](Cc2cccc(C(N)=O)c2)NC(=O)CSC[C@@H](C(N)=O)NC(=O)[C@H](CCCC(N)=O)NC(=O)[C@H]([C@@H](C)O)NC(=O)[C@H](Cc2cn(C)c3ccccc23)NC(=O)[C@H](C(C)C)NC(=O)[C@H](Cc2cn(C)c3ccccc23)NC(=O)[C@H](CC(N)=O)N(C)C(=O)[C@H](CCCC(N)=O)NC1=O` [PDC_EphA2-00019423, df3CON-MeF-N-L-Hgn-MeN-W1Me-V-W1Me-T-Hgn-C-NH2] ({CH2CO}-[dPhe(3-CONH2)][NMeF]NL[Aad](NH2)[NMeN][Trp(1-Me)]V[Trp(1-Me)]T[Aad](NH2)C-NH2; thioether N-12): below 1 nM; for `CC(C)[C@@H]1NC(=O)[C@H](Cc2cn(C)c3c(Cl)cccc23)NC(=O)[C@H](CC(N)=O)N(C)C(=O)[C@H](CCCC(N)=O)NC(=O)[C@H](C2CCC2)NC(=O)[C@H](CC(N)=O)NC(=O)[C@H](Cc2cccnc2)N(C)C(=O)[C@@H](Cc2cccc(C(N)=O)c2)NC(=O)CSC[C@@H](C(N)=O)NC(=O)[C@H](CCCC(N)=O)NC(=O)[C@H]([C@@H](C)O)NC(=O)[C@H](Cc2cn(C)c3ccccc23)NC1=O` [PDC_EphA2-00019424, df3CON-Me3Py-N-Cbg-Hgn-MeN-W1Me7Cl-V-W1Me-T-Hgn-C-NH2] ({CH2CO}-[dPhe(3-CONH2)][NMe3Pal]N[Gly(cBu)][Aad](NH2)[NMeN][Trp(1-Me,7-Cl)]V[Trp(1-Me)]T[Aad](NH2)C-NH2; thioether N-12): below 1 nM. With `C[C@@H](O)[C@@H]1NC(=O)[C@H](Cc2cn(C)c3ccccc23)NC(=O)[C@H](CCCCNC(=O)N2CCN(CC(=O)O)CC2)NC(=O)[C@H](Cc2cn(C)c3c(Cl)cccc23)NC(=O)[C@H](CC(N)=O)N(C)C(=O)[C@H](CCCC(N)=O)NC(=O)[C@H](C2CCC2)NC(=O)[C@H](CC(N)=O)NC(=O)[C@H](Cc2ccccc2)N(C)C(=O)[C@@H](Cc2cccc(C(N)=O)c2)NC(=O)CSC[C@@H](C(N)=O)NC(=O)[C@H](CCCC(N)=O)NC1=O` [PDC_EphA2-00019425, df3CON-MeF-N-Cbg-Hgn-MeN-W1Me7Cl-KCOpipzaa-W1Me-T-Hgn-C-NH2] ({CH2CO}-[dPhe(3-CONH2)][NMeF]N[Gly(cBu)][Aad](NH2)[NMeN][Trp(1-Me,7-Cl)]K([CO-Piperazinyl(4-CH2COOH)])[Trp(1-Me)]T[Aad](NH2)C-NH2; thioether N-12) the figure was below 1 nM.
